Assay results as given in patent publication US20220348565A1, “PHARMACEUTICAL COMPOUNDS” (SENTINEL ONCOLOGY LIMITED, priority 2019, published 2022).
pIC50: −log10 of the molar value. Counter-ions that a name gives are not always drawn. Like-named read-outs stand apart in the source and are kept apart here. One block for each molecule: values may come before it.

How the values were obtained:
[1] = Chiral stability (interconversion) of isolated atropisomers on heating, chiral HPLC; format: physicochemical; conditions: for % ee of sample @ 40° C. / % ee sample @ 80° C.: EtOH solution, listed as A-1
Procedure: Stability studies were carried out on the isolated atropisomers, atropisomers A-1 and A-2. To assess the interconversion of atropisomer A-1 and atropisomer A-2 chiral stability was monitored at 40° C. and 80° C. […] 1. 2×1 mg of pure atropisomer was dissolved in 1 mL of EtOH in a sealed-dram vial. 2. One set of vials was heated at 40° C. and another set at 80° C. 3. […] 4. Analysis was carried out at the following timepoints: 0 h, 24 h, 48 h, 72 h, 96 h and 240 h for the samples kept at 40° C. and 24 h, 96 h and 240 h for the samples kept at 80° C. using Chiral HPLC method 5

U87MG cells [2] = assay: U87MG human glioblastoma cell viability, SRB assay, 72 hours; format: cell-based
Procedure: The following protocol was used to measure the effects of compounds of the invention on U87MG cell viability.
U87MG cells were grown in their recommended growth media/supplements (ATCC). Cells were seeded at a concentration of 5000 cells per well into 96 well plates overnight at 37° C., 5% CO2. Cells were treated with relevant concentrations of test compound for 72 hours. After 72 hours incubation, viability was established using sulforhodamine B (SRB) colorimetric assay. Percentage viability was calculated against the mean of the DMSO treated control samples, and IC50 values for inhibition of cell growth were calculated using GraphPad Prism software by nonlinear regression (4 parameter logistic equation).

[3] = system: panel of 48 cancer-derived cell lines; assay: Proliferation assay on diverse cancer cell line panel, CellTiter-Glo, 72 hours; format: cell-based; conditions: 72 hours
Procedure: Screening against diverse cancer cell lines was performed to identify tumour types displaying sensitivity to atropisomers A-1 and A-2. A panel of 48 cancer-derived cell lines was screened in a high-throughput proliferation assay using dilutions of atropisomers A-1/A-2. Cell lines that were screened included those representing cancer of the pancreas, large intestine/colorectum, lung, brain and nerves, and lymphoma and leukaemia cell lines. Cell lines were treated with serial half-log dilutions of compound and assayed 72 hours later for proliferation using CellTiter-Glo Assay (Promega). IC50 values were calculated by fitting the dose-response data using a nonlinear regression model.

U87MG cells [4] = assay: Mitotic phenotype study in U87MG cells; format: cell-based, human; conditions: 0.03 μM, listed as A-1
Procedure: Distinct mitotic phenotypes are induced following inhibition of PLK1 and PLK4 in cells. […] Centriole assembly is controlled by PLK4, with inhibitors inducing a multipolar spindle phenotype due to centrosome defects which results in abnormal cyokinesis (Wong et al., 2015. Science 348(6239); 1155-1160). Cells were plated at 10 000/well in 96-well plates and incubated overnight. The following day atropisomer A-2 stocks in DMSO were diluted in medium then added to cells with a maximum final DMSO concentration on cells of 0.2%. Cells were incubated with the compound for 24 hours then fixed in 3.7% formaldehyde. Cells were permeabilised with 0.1% Triton X-100 then incubated with anti-phospho-histone H3 (Ser10) antibody (Abcam). The cells were washed with PBS then incubated with AlexaFluor 488 labelled goat anti-rabbit IgG (Invitrogen) in the presence of 4 ug/mL Hoechst 33342 (Invitrogen). Cells were washed in PBS then imaged on an Arrayscan VTi HCS instrument using the Target Activation V4 Bioapplication. A user-defined threshold was applied to identify mitotic cells based on the intensity of phospho-histone H3 staining. In a separate study, following the above protocol and using single compound concentrations of 0.03 μM for each of atropisomer A-1 and atropisomer A-2, the frequency of observed mitotic phenotypes in U87MG cells was manually assessed and classified into the following phenotypes: non-congressed chromosomes, multipolar spindles/abnormal cytokinesis, monopolar spindles, normal prometaphase, normal metaphase for each of A-1 and A-2.

[5] = system: wild-type KRAS HeLa cells; assay: HeLa cell viability, wild-type KRAS transgene, Cell Titre Blue; format: cell-based; conditions: 72 hours, listed as A-4, read-out: WT GI50
Procedure: (§1) Atropisomers A-1, A-2, A-3 and A-4 were tested on HeLa cells engineered to inducibly express wild-type or oncogenic KRasG12V transgenes using the FLP-in/T-Rex system (Invitrogen). Cells were plated, and then treated with or without Doxycycline to induce transgene expression, and then treated with serially-diluted PBD inhibitors. After 72 hours of incubation, cell viability was assessed using the Cell Titre Blue reagent (Promega) and a BMG Pherastar plate reader. The effect of PBD inhibition on cell viability with either wild-type or oncogenic G12V KRAS was assessed using GraphPad Prism.
(§2) From the results obtained by following the above protocol, the GI50 values against the wild-type and KRAS G12V HeLa cell line of each of the atropisomers were determined as shown in Table 12.

KRAS G12V HeLa cell line = assay: HeLa cell viability, oncogenic KRasG12V transgene, Cell Titre Blue; format: cell-based; conditions: KRAS G12V HeLa cells, 72 hours; listed as A-4
Procedure: as §1, §2

[6] = Gravimetric solubility in water; format: physicochemical
Procedure: The solubility in water of the salts was measured using a gravimetric solubility protocol.
(§3) 1 ml of water was charged into crystallisation tubes. The solid was weighed into a tared glass vial, added in portions to the solutions and the vial weighed after each addition until a hazy solution was observed. The amount in mg was then calculated to give the solubility in mg/ml.
as §3, with “The solubility in water of the salts was measured using a gravimetric solubility protocol. Thus, 1” for “1”, “mg/mL.” for “mg/ml.”

[7] = Gravimetric vapour sorption (GVS); format: physicochemical; conditions: at 90% RH
Procedure: Sorption isotherms were obtained using a Hiden Isochema moisture sorption analyser (model IGAsorp), controlled by IGAsorp Systems Software V6.50.48. The sample was maintained at a constant temperature (25° C.) by the instrument controls. The humidity was controlled by mixing streams of dry and wet nitrogen, with a total flow of 250 ml·min-1. The instrument was verified for relative humidity content by measuring three calibrated Rotronic salt solutions (10-50-88%). The weight change of the sample was monitored as a function of humidity by a microbalance (accuracy +/−0.005 mg). A defined amount of sample was placed in a tared mesh stainless steel basket under ambient conditions. A full experimental cycle typically consisted of three scans (sorption, desorption and sorption) at a constant temperature (25° C.) and 10% RH intervals over a 0-90% range (60 minutes for each humidity level).

% ee of sample @ 40° C. ([1]; 0 h): 100 % ee | % ee of sample @ 40° C. ([1]; 24 h): 100 % ee | % ee of sample @ 40° C. ([1]; 48 h): 100 % ee | % ee of sample @ 40° C. ([1]; 72 h): 100 % ee | % ee of sample @ 40° C. ([1]; 96 h): 100 % ee | % ee of sample @ 40° C. ([1]; 10 days): 100 % ee | % ee sample @ 80° C. ([1]; 0 h): 100 % ee | % ee sample @ 80° C. ([1]; 24 h): 100 % ee | % ee sample @ 80° C. ([1]; 96 h): 100 % ee | % ee sample @ 80° C. ([1]; 10 days): 100 % ee | atropisomer classification (LaPlante) ([1]; from stability of isolated atropisomers): Class 3 | interconversion / racemization of atropisomers on heating ([1]; heating for 10 days at 40° C. and 80° C.): no interconversion was observed | pIC50 (U87MG cells [2]): 5.34 | pIC50 ([3]; A549, Lung): 5.04 | pIC50 ([3]; A-172, Brain & Nerves): 5.15 | pIC50 ([3]; AsPC-1, Pancreas): < 5.00 | pIC50 ([3]; BxPC-3, Pancreas): 5.16 | pIC50 ([3]; COLO 205, Large intestine/Colorectum): 5.17 | pIC50 ([3]; Capan-1, Pancreas): < 5.00 | pIC50 ([3]; D283 Med, Brain & Nerves): 5.03 | pIC50 ([3]; DOHH-2, Blood/Lymphoma): 5.25 | pIC50 ([3]; Daoy, Brain & Nerves): 5.15 | pIC50 ([3]; Daudi, Blood/Lymphoma): 5.14 | pIC50 ([3]; GRANTA-519, Blood/Lymphoma): 5.13 | pIC50 ([3]; HBL-1, Blood/Lymphoma): 5.00 | pIC50 ([3]; HCC44, Lung): 5.08 | pIC50 ([3]; HOT 116, Large intestine/Colorectum, listed as A-1): 5.13 | pIC50 ([3]; HT-29, Large intestine/Colorectum): 5.34 | pIC50 ([3]; JVM-2, Blood/Lymphoma): 5.33 | pIC50 ([3]; JeKo-1, Blood/Lymphoma): 5.10 | pIC50 ([3]; KG-1, Blood/Leukaemia): < 5.00 | pIC50 ([3]; Kasumi-1, Blood/Leukaemia): 5.29 | pIC50 ([3]; LN-229, Brain & Nerves): 5.13 | pIC50 ([3]; LoVo, Large intestine/Colorectum): 5.08 | pIC50 ([3]; MIA PaCa-2, Pancreas): 5.04 | pIC50 ([3]; ML-2, Blood/Leukaemia, listed as A-1): 5.40 | pIC50 ([3]; MV-4-11, Blood/Leukaemia): 5.19 | pIC50 ([3]; NAMALWA, Blood/Lymphoma): 5.15 | pIC50 ([3]; NCI-H460, Lung): 5.09 | pIC50 ([3]; NCI-H1299, Lung): 5.08 | pIC50 ([3]; NCI-H1373, Lung): < 5.00 | pIC50 ([3]; NCI-H1792, Lung): 5.11 | pIC50 ([3]; NCI-H1975, Lung): 5.29 | pIC50 ([3]; OCI-LY-19, Blood/Lymphoma): 5.18 | pIC50 ([3]; PANC-1, Pancreas): < 5.00 | pIC50 ([3]; Panc 10.05, Pancreas): 5.05 | pIC50 ([3]; RKO, Large intestine/Colorectum): 5.21 | pIC50 ([3]; Raji, Blood/Lymphoma): 5.41 | pIC50 ([3]; Ramos, Blood/Lymphoma): 5.40 | pIC50 ([3]; SK-MES-1, Lung): 5.11 | pIC50 ([3]; SU-DHL-2, Blood/Lymphoma): 5.15 | pIC50 ([3]; SU-DHL-6, Blood/Lymphoma): 5.40 | pIC50 ([3]; SVV620, Large intestine/Colorectum, listed as A-1): 5.08 | pIC50 ([3]; SW480, Large intestine/Colorectum): 5.12 | pIC50 ([3]; SW1088, Brain & Nerves): 5.07 | pIC50 ([3]; T98G, Brain & Nerves): 5.28 | pIC50 ([3]; Toledo, Blood/Lymphoma): < 5.00 | pIC50 ([3]; U118 MG, Brain & Nerves): 5.12 | pIC50 ([3]; U-2932, Blood/Lymphoma): 5.35 | pIC50 ([3]; WSU-DLCL2, Blood/Lymphoma): 5.17 | pIC50 ([3]; Z-138, Blood/Lymphoma): 5.15
Compound: CN(C)CCNC(=O)c1ccc(-c2ccc(-c3ccc(Cl)cc3)n2-c2ccccc2C(F)(F)F)cc1 (single isomer, unassigned) [Atropisomer A-1, 4-[5-(4-chlorophenyl)-1-[2-(trifluoromethyl)phenyl]pyrrol-2-yl]-N-[2-(dimethylamino)ethyl]benzamide]
cells with abnormal cytokinesis (U87MG cells [4]): 24% | cells with non-congressed chromosomes (U87MG cells [4]): No evidence | cells with normal mitotic phenotype (U87MG cells [4]): 76%

pIC50 (U87MG cells [2]; listed as A-4): 5.40 | GI50 [5]: 0.254 µM | GI50 (KRAS G12V HeLa cell line): 0.153 µM
Compound: CN(C)CCNC(=O)c1ccc(-c2ccc(-c3ccc(Cl)cc3)n2-c2ccccc2C(F)(F)F)nc1 (single isomer, unassigned) [Atropisomer A-4, 6-[5-(4-chlorophenyl)-1-[2-(trifluoromethyl)phenyl]pyrrol-2-yl]-N-[2-(dimethylamino)ethyl]pyridine-3-carboxamide]

surface moisture uptake [7]: < 1%
Compound: CN(C)CCNC(=O)c1ccc(-c2ccc(-c3ccc(Cl)cc3)n2-c2ccccc2C(F)(F)F)cc1 [(+)-L-tartaric acid salt, (R)-2,4-[5-(4-chlorophenyl)-1-[2-(trifluoromethyl)-phenyl]pyrrol-2-yl]-N-[2-(dimethylamino)-ethyl]benzamide (+)-L-tartaric acid salt]
water solubility compared with free base [6]: improved water solubility over the free base
